In PMC11347369, “Synthesis and antibacterial action of 3’,6’-disubstituted spectinomycins” (The Journal of Antibiotics, 2024):
Values after ≈ are worked out from the molar mass of the structure shown. Structures can show the parent of a compound that is named as a salt. Where two headings read alike, the source gives them in different places.

Legend:
E. coli K12 [1] = assay: microbe, parasite or virus in culture; settings: Escherichia coli, K12, read-out: Minimum Inhibitory Concentration
M. abscessus ATCC 19977 [2] = assay: microbe, parasite or virus in culture; settings: Mycobacteroides abscessus, ATCC19977, 72 h, read-out: WT MIC
[3] = system: M. tuberculosis H37Rv ∆1258c; assay: microbe, parasite or virus in culture; format: cell-based; settings: Mycobacterium tuberculosis, 168 h
E. coli K12 [4] = settings: E. coli K12 MIC versus K12 ∆tolC MIC
[5] = system: M. abscessus ATCC 19977 ∆2780c; assay: microbe, parasite or virus in culture; format: cell-based, Mycobacterium abscessus; settings: Mycobacteroides abscessus, ATCC19977, 72 h, read-out: ∆2780c MIC
E. faecalis ATCC 29212 = assay: MIC broth microdilution, E. faecalis; format: cell-based; settings: Enterococcus faecalis, ATCC29212, read-out: Minimum Inhibitory Concentration
[6] = system: K. pneumoniae ATCC 700603; assay: MIC broth microdilution, K. pneumoniae; format: cell-based, Klebsiella pneumoniae; settings: Klebsiella pneumoniae, ATCC700603, read-out: Minimum Inhibitory Concentration
E. faecium ATCC 19434 = assay: MIC broth microdilution, E. faecium; format: cell-based; settings: Enterococcus faecium, ATCC19434, read-out: Minimum Inhibitory Concentration
S. pyogenes ATCC 700294 = assay: MIC broth microdilution, S. pyogenes; format: cell-based; settings: Streptococcus pyogenes, ATCC700294, read-out: Minimum Inhibitory Concentration
[7] = system: M. smegmatis strain MC^2 155; assay: MIC broth microdilution, M. smegmatis; format: cell-based, Mycobacterium smegmatis; settings: Mycolicibacterium smegmatis, MC^2155, 72 h, read-out: WT MIC
A. baumannii ATCC 19606 = assay: MIC broth microdilution, A. baumannii; format: cell-based, Acinetobacter baumannii; settings: Acinetobacter baumannii, ATCC19606, read-out: Minimum Inhibitory Concentration
S. pneumoniae R6 = assay: MIC broth microdilution, S. pneumoniae; format: cell-based; settings: Streptococcus pneumoniae, read-out: Minimum Inhibitory Concentration
[8] = system: S. epidermidis ATCC 14990; assay: MIC broth microdilution, S. epidermidis; format: cell-based; settings: Staphylococcus epidermidis, ATCC14990, read-out: Minimum Inhibitory Concentration
[9] = target: T1, M. smegmatis ribosomes (strain SZ380) (Mycolicibacterium smegmatis, UniProt A0QSG6); assay: Mycobacterial cell-free translation inhibition assay; format: biochemical, Mycobacterium smegmatis
T1 construct: S30 extracts were prepared by addition of dithiothreitol (DTT) to 1 mM and centrifugation; endogenous in cells; host or cells: M. smegmatis strain SZ380, S30 cell extract
T1 sequence (A0QSG6 whole entry): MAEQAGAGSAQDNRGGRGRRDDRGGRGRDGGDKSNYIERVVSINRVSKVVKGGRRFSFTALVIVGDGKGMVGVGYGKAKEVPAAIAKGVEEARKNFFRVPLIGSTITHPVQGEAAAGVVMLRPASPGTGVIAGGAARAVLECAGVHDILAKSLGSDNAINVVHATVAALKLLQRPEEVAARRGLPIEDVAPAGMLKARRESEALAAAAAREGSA
Method: Mycobacterial cell-free translation inhibition assays were performed as described previously. In brief, M. smegmatis strain SZ380 bacterial cells were disrupted and emulsified with a microfluidizer processor (Microfluidics, Westwood, MA, USA) at 25,000 lb/in^2. S30 extracts were prepared by addition of dithiothreitol (DTT) to 1 mM and centrifugation at 30,000 × g at 4 °C. Translation reaction mixtures containing either test article or DMSO vehicle control and 4 μl of the S30 extract, 0.2 mM amino acid mix, 6 μg tRNA (Sigma), 0.4 μg hFluc mRNA, 0.3 μl protease inhibitor (complete, EDTA-free, Roche), 12 U RNAse inhibitor (Ribolock, Thermo Scientific), 6 μl S30 premix without amino acids (Promega), plus water to a final reaction volume of 15 μl were incubated for 1 h at 37 °C. The reaction was stopped on ice before adding 75 μl of luciferase assay reagent (Promega) and recording of luminescence. Regression analysis and IC50 calculations were performed using GraphPad Prism version 9.3.1 by using the equation [log(inhibitor) vs. response–Variable slope (four parameters)] with the fitting method: least squares (ordinary) fit. Y = Bottom + (Top-Bottom)/(1 + 10^((X-LogIC50))).

M. tuberculosis H37Rv [10] = assay: microbe, parasite or virus in culture; settings: Mycobacterium tuberculosis, 168 h, read-out: WT MIC
E. coli K12 ∆tolC = assay: microbe, parasite or virus in culture; format: cell-based; settings: Escherichia coli, read-out: Minimum Inhibitory Concentration
M. abscessus ATCC 19977 [11] = system: M. abscessus ATCC 19977
M. tuberculosis H37Rv [12] = system: M. tuberculosis H37Rv
S. aureus USA300 = assay: MIC broth microdilution, S. aureus; format: cell-based; settings: Staphylococcus aureus, USA300, read-out: Minimum Inhibitory Concentration
P. aeruginosa ATCC 15692 = assay: MIC broth microdilution, P. aeruginosa; format: cell-based, Pseudomonas aeruginosa; settings: Pseudomonas aeruginosa, ATCC15692, read-out: Minimum Inhibitory Concentration
[13] = target: T1, M. smegmatis ribosomes (strain SZ380); settings: read-out: Ribo. IC50, cited from earlier work
[14] = cell-free translation, M. smegmatis SZ380 S30 extract, luciferase readout, read-out: Ribo. IC50

Row | Structure (SMILES) | MIC (E. coli K12 [1]) [µg/mL] | MIC (M. abscessus ATCC 19977 [2]) [µg/mL] | MIC [3] [µg/mL] | E. coli Efflux Ratio (E. coli K12 [4]) | MIC [5] [µg/mL] | MIC (E. faecalis ATCC 29212) [µg/mL] | MIC [6] [µg/mL] | MIC (E. faecium ATCC 19434) [µg/mL] | MIC (S. pyogenes ATCC 700294) [µg/mL] | MIC [7] [µg/mL] | MIC (A. baumannii ATCC 19606) [µg/mL] | MIC (S. pneumoniae R6) [µg/mL] | MIC [8] [µg/mL] | IC50 [9, 14] [µM] | MIC (M. tuberculosis H37Rv [10]) [µg/mL] | MIC (E. coli K12 ∆tolC) [µg/mL] | Efflux Ratio (M. abscessus ATCC 19977 [11]) | Efflux Ratio (M. tuberculosis H37Rv [12]) | MIC (S. aureus USA300) [µg/mL] | MIC (P. aeruginosa ATCC 15692) [µg/mL] | further results
1 | CCCCC1CC(O)(CN)C2(O)OC3C(NC)C(O)C(NC)C(O)C3OC2O1 [AmTroSPC (13), 3’-(R)-Aminomethyl-6’-propyl-dihydrospectinomycin] | > 64 | 64 (≈ 158 µM) | 8 (≈ 19.7 µM) | >2 | 64 (≈ 158 µM) | > 64 | > 64 | > 64 | 16 (≈ 39.5 µM) | 128 (≈ 316 µM) | > 64 | 16 to 32 (≈ 39.5 to 78.9 µM) | > 64 | 2.71 | 64 (≈ 158 µM) | 32 (≈ 78.9 µM) | 1 | 8 | > 64 | > 64 | –
2 | CCCC[C@@H]1C[C@@H](N)[C@]2(O)O[C@@H]3[C@@H](NC)[C@@H](O)[C@@H](NC)[C@H](O)[C@H]3O[C@@H]2O1 [Amino TroSPC (11), 3’-(R)-Amino-3’-deoxy-6’-propyl-dihydrospectinomycin trihydrochloride] | > 64 | 64 | 2 | >2 | 64 | > 64 | > 64 | > 64 | 32 | 32 | > 64 | 64 | > 64 | 0.64 | 16 | 32 | 1 | 8 | > 64 | > 64 | –
3 | CN[C@@H]1[C@H](O)[C@H](NC)[C@H]2O[C@]3(O)[C@H](O[C@@H]2[C@H]1O)O[C@H](C)C[C@H]3NC(=O)Cc1ccccn1 [SPA (3), reference compound] | – | – | 4 (≈ 8.84 µM) | – | – | – | – | – | – | – | – | – | – | – | 2 (≈ 4.42 µM) | – | 4 | – | – | – | IC50 ([13]; converted from µg/mL to µM from what was previously reported): 1.8 µM
4 | CCCC[C@@H]1C[C@@H](NC(=O)Cc2ccccn2)[C@]2(O)O[C@@H]3[C@@H](NC)[C@@H](O)[C@@H](NC)[C@H](O)[C@H]3O[C@@H]2O1 [TroSPA (4), 3′-Deoxy-3′(R)-[(pyridin-2-yl)acetylamino]-6’-propyl-dihydrospectinomycin dihydrochloride] | > 64 | 64 | 1 | >2 | 16 | > 64 | > 64 | > 64 | 8 | 32 | > 64 | 16 | > 64 | – | 2 | 32 | 4 | 2 | > 64 | > 64 | IC50 [9]: 2.45 µM
5 | CN[C@@H]1[C@H](O)[C@H](NC)[C@H]2O[C@]3(O)[C@H](O[C@@H]2[C@H]1O)O[C@H](C)C[C@@]3(O)CNCc1ccc(F)cc1 [bAmSPC (5), reference compound] | – | 128 (≈ 271 µM) | 2 (≈ 4.24 µM) | – | 8 (≈ 17 µM) | – | – | – | – | – | – | – | – | – | 16 (≈ 33.9 µM) | – | 16 | 8 | – | – | IC50 ([13]; previously reported): 1.18 µM
6 | CCCCC1CC(O)(CNCc2ccc(F)cc2)C2(O)OC3C(NC)C(O)C(NC)C(O)C3OC2O1 [bAmTroSPC (6), 3′(R)-[(4-Fluorobenzyl)aminomethyl]-6’-propyl-dihydrospectinomycin trihydrochloride] | 32 | 64 | 1 | 4–8 | 64 | 32 | > 64 | 32 | 2 | 64 | > 64 | 4 | 16 | 2.49 | 8 | 4 to 8 | 1 | 8 | 64 | > 64 | –
7 | CN[C@@H]1[C@H](O)[C@H](NC)[C@H]2O[C@]3(O)[C@H](O[C@@H]2[C@H]1O)O[C@H](C)C[C@@]3(O)CNCCc1ccc(F)cc1 [eAmSPC (7), reference compound] | – | 4 (≈ 8.24 µM) | 0.5 (≈ 1.03 µM) | – | 1 (≈ 2.06 µM) | – | – | – | – | 4 (≈ 8.24 µM) | – | – | – | – | 2 (≈ 4.12 µM) | – | 4 | 4 | – | – | IC50 ([13]; previously reported): 1.01 µM
8 | CCCCC1CC(O)(CNCCc2ccc(F)cc2)C2(O)OC3C(NC)C(O)C(NC)C(O)C3OC2O1 [eAmTroSPC (8), 3′(R)-[(4-Fluorophenylethyl)aminomethyl]-6’-propyl-dihydrospectinomycin trihydrochloride] | 64 | 8 | 0.25 | 8–16 | 8 | 32 | > 64 | 32 | 4 | 8 | > 64 | 8 | 8 | – | 2 | 4 to 8 | 1 | 8 | 64 | > 64 | IC50 [9]: 2.31 µM
